For this experiment, the system named is mice subjected to restraint stress. Put plainly: Morris water maze learning test. Format: in vivo, male ICR mice. Particulars: mice after 6 hour restraint stress; TGA40S-containing diet from 3 weeks before, about 25 mg TGA40S (10 mg arachidonic acid) per mouse daily; five trials a day for 5 days; FIG. 1. From the text: The experimental groups consisted of 56 two- to three-month-old male ICR mice, divided into a control diet group (27 mice) and a TGA40S-containing diet group (29 mice), with the control diet or TGA40S-containing diet shown in Table 1 being given to each group for 3 weeks. Each group was further divided into non-restrained groups (non-restrained control diet group (13), non-restrained arachidonic acid (ARA) diet group (15)) and restrained groups (restrained control diet group (14), restrained ARA diet group ([…])). The restraining was accomplished using a wire mesh restraining tube, once for a 6 hour period three weeks after the start of feeding. The control diet or TGA40S-containing diet shown in Table 1 continued to be fed to each group for the remaining experiment period. The TGA40S used for the TGA40S-containing diet was the product obtained in Example 1. Since the daily ingestion was approximately 5 g per mouse, the daily intake of TGA40S was 25 mg per mouse. Also, since the total fatty acids bonded to the arachidonic acid-containing oils or fats (triglycerides) prepared in Example 1 included 40 wt % arachidonic acid, the daily intake of arachidonic acid was 10 mg per mouse. […] The time required for the mouse to reach the escape platform (escape latency time) was recorded as the learning index.

For `CCCCC/C=C\C/C=C\C/C=C\C/C=C\CCCC(=O)O` [arachidonic acid], the “learning ability (escape latency time, time required to reach the escape platform)” value is listed as “exhibits an improving effect against decline in learning ability or cognitive ability as a result of stress”.

Values taken from patent US20070270493A1, “Composition with Preventive or Improvement Effect on Stress-Induced Brain Function Impairment and Related Symptoms or Diseases” (priority 2004, published 2007).
